In paper PMC5441580, “GPR40 partial agonist MK-2305 lower fasting glucose in the Goto Kakizaki rat via suppression of endogenous glucose production” (PLoS ONE, 2017):
Values joined by “and” are separate entries in the source; they are usually repeats but may differ in a detail not shown here. Equal entries are not always repeated.

What was measured:
human GPR41 (FFAR3) = target: T1, human GPR41 (FFAR3) (Homo sapiens, UniProt O14843); experiment: cAMP (LANCE) functional assay, CHO cells expressing human GPR41; assay type: cell-based
T1 construct: expressed in transfected cells
T1 sequence (O14843 1-346): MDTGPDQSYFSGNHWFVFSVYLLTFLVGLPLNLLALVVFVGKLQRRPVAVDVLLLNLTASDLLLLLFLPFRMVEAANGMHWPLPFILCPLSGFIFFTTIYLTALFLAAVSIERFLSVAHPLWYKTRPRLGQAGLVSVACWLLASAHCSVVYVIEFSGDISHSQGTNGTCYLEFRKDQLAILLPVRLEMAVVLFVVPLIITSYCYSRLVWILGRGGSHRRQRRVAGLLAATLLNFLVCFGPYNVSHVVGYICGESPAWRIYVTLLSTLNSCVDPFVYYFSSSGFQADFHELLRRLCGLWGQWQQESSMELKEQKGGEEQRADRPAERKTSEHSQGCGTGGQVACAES
Protocol: CHO cells stably expressing human GPR41 or human GPR43 were harvested with non-enzymatic cell dissociation buffer and re-suspended in LANCE stimulation buffer (prepared as described by PE) at 0.25 million cells per ml (3.3 million cells per ml for GPR43) and 6 μl was then plated into each well of a 384-well Culturplate. Compounds were serially diluted in DMSO and then diluted further into stimulation buffer containing 2 μM forskolin (Sigma) at 2-times final concentration in the assay. 6 μl of the diluted compounds were then added to the assay plate and the plate incubated for 60 mins at room temperature. After the incubation, 12 μl of detection reagent (prepared as described by PE) was added to each well and the plates incubated one additional hour at room temperature. After the final incubation, the plates were read in a Perkin Elmer Envision reader with a method designed for Time-resolved fluorescence (TRF) assays (340 nm excitation, dual emission 615 and 655 nm). For each assay, a cAMP standard curve plate was also included. All fluorescent readings (using the 655/615 nm ratio) were converted to cAMP concentration using the cAMP standard curve and the percent activity at each concentration of test compound was determined using 0% activation (basal activity) determined in those wells containing DMSO alone, while 100% activity was determined in wells containing a concentration of agonist know to maximally activate the receptor.

Rat PPARα = target: T2, Rat PPARα (Rattus norvegicus, UniProt P37230); experiment: cell-based nuclear receptor profiling (Indigo Biosciences), PPARα
T2 sequence (P37230 1-468): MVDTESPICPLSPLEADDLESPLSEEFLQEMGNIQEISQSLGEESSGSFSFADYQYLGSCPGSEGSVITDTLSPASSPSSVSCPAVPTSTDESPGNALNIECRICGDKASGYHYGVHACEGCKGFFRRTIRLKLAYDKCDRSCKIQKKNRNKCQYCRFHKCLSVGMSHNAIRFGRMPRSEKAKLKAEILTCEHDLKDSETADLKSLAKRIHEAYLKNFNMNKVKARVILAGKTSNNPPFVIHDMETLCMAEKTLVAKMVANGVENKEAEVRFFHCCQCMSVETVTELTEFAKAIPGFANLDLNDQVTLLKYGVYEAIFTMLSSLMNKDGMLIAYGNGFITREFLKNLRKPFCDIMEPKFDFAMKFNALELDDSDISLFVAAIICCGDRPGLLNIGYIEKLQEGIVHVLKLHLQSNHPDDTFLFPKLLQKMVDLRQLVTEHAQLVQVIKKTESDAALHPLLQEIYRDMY
Protocol: Rat PPARα, PPARδ, and PPARγ activities were determined by Indigo Biosciences (State College, PA) cell-based nuclear receptor profiling service.

[1] = test system: perfused db/db mouse livers; experiment: isolated perfused liver study, 13C NMR, [2-13C] pyruvate
Protocol: To evaluate whether GPR40 partial agonist treatment produced a direct effect on hepatic glucose production, we performed isolated perfused liver studies with ^13C NMR spectroscopy in which GPR40 agonists were dosed directly to the liver ex vivo. Mouse livers were chosen instead of rat livers due to size restrictions of the perfused liver apparatus. […] A detailed description of the perfused liver technique can be found elsewhere. Briefly, db/db mice were anesthetized (Nembutal IP, 100 mg/kg), the portal vein was cannulated and tied off, and the liver was excised and perfused with a pre-oxygenated Krebs-bicarbonate buffered solution. The liver was then placed into a 20 mm NMR tube and the gluconeogenic substrate [2-^13C] pyruvate (10 mM) was added to the perfusate plus either MK-2305 (10 μM) or vehicle (0.1% DMSO). […] These NMR signals were then converted to absolute units (μmoles) by comparison to ^13C NMR spectra of standard solutions acquired under identical conditions. Additional correction factors were included for ^13C-glycogen and ^13C-glucose to account for the fact that position 2 in pyruvate can end up at position 1, 2, 5, or 6 in glucose/glycogen due to the fumarase and triose phosphate isomerase reactions. The slope of each signal versus time was then used to calculate the following fluxes: glucose production, glycogen synthesis, and lactate production.

GPR40 receptor = conditions: cited from earlier work
[2] = perfused db/db mouse livers, 10 mg/kg, title: 10 M, individual livers

**Q.** Which results are given for `O=C1NC(=O)C(C2CCOc3cc(Oc4ccc(C(F)(F)F)cc4Cl)ccc32)S1` (centres unmarked) [MK-2305]?
**A.** % Activation (human GPR41 (FFAR3); @ 25 μM): 85 @ 25 μM % and 85%; % Effect (human GPR41 (FFAR3); Dose 1.267 nM): -32%; % Effect (human GPR41 (FFAR3); Dose 3.801 nM): 0.634%; % Effect (human GPR41 (FFAR3); Dose 34.208 nM): -2.75%; % Effect (human GPR41 (FFAR3); Dose 102.624 nM): -4.7%; % Effect (human GPR41 (FFAR3); Dose 307.872 nM): -36%; % Effect (human GPR41 (FFAR3); Dose 923.617 nM): -18%; % Effect (human GPR41 (FFAR3); Dose 2770.85 nM): -0.143%; % Effect (human GPR41 (FFAR3); Dose 8312.55 nM): 50%; % Effect (human GPR41 (FFAR3); Dose 24938 nM): 85%; EC50 (human GPR41 (FFAR3); cAMP, CHO cells expressing human GPR41): 12.7 µM; EC50 (Rat PPARα): > 10 µM; % Activation (Rat PPARα; @ 10 μM): -0.2 @ 10 μM % and -0.24%; % Effect (Rat PPARα; Dose 0.309 nM): -0.03%; % Effect (Rat PPARα; Dose 0.981 nM): -0.05%; % Effect (Rat PPARα; Dose 3.11 nM): -0.11%; % Effect (Rat PPARα; Dose 9.85 nM): -0.1%; % Effect (Rat PPARα; Dose 31.2 nM): -0.09%; % Effect (Rat PPARα; Dose 99 nM): -0.06%; % Effect (Rat PPARα; Dose 314 nM): -0.09%; % Effect (Rat PPARα; Dose 995 nM): -0.13%; % Effect (Rat PPARα; Dose 3155 nM): -0.18%; % Effect (Rat PPARα; Dose 10000 nM): -0.24%; effect on conversion of [2-13C] pyruvate to 13C-glucose, 13C-glycogen, or 13C-lactate ([1]; 10 μM, perfused db/db mouse liver): no effects; Flux, conversion of [2-13C] pyruvate to 13C-glycogen [1, 2]: 0.1121 umoles pyr /g liver*min and 0.1693 umoles pyr /g liver*min and 0.0485 umoles pyr /g liver*min and 0.07554 umoles pyr /g liver*min; Flux, conversion of [2-13C] pyruvate to 13C-lactate [1, 2]: 1.604 umoles pyr /g liver*min and 1.499 umoles pyr /g liver*min and 1.317 umoles pyr /g liver*min and 0.5832 umoles pyr /g liver*min; Flux, conversion of [2-13C] pyruvate to 13C-glucose ([1]; perfused db/db mouse livers, MK-2305 10 μM in perfusate, individual livers): 0.9558 umoles pyr /g liver*min and 1.314 umoles pyr /g liver*min and 1.287 umoles pyr /g liver*min and 0.8408 umoles pyr /g liver*min; binding site on GPR40 (GPR40 receptor): binds to the same site as other GPR40 partial agonists such as AMG837 and TAK-875; effect on binding of AgoPAM's (GPR40 receptor): augments the binding of AgoPAM’s such as AM1638
